{
  "source": "paper PMC5920614",
  "about": "(ACS Central Science, 2018)",
  "key": {"[1]": {"assay": "31P NMR of peptide/lipid II mixtures", "type": "binding", "conditions": "dimethyl sulfoxide"}, "[2]": {"conditions": "cited from earlier work"}},
  "note": "Ends that are not written are not given here.",
  "data": [
    {"sequence": "ITSISLCTPGC (also: bicyclic or more (positions not given here)) [nisin A]", "values": [
      {"measurement": "direction of shift of the new 31P NMR resonances (in words)", "setting": "[1]; lipid II mixed with peptide", "result": "both new resonances arising in the nisin/lipid II spectra were shifted upfield"},
      {"measurement": "binding to lipid II by 31P NMR (in words)", "setting": "[1]; two new 31P resonances", "result": "both compounds bind to lipid II"},
      {"measurement": "pyrophosphate 31P peak shift upon nisin binding (in words)", "setting": "[2]; 31P NMR, dimethyl sulfoxide", "result": "the pyrophosphate peaks shift upfield upon nisin binding"},
      {"measurement": "binding to lipid II (in words)", "setting": "[2]", "result": "binds to the small molecular weight metabolite lipid II"}
    ]}
  ]
}
